What was measured:
TRPV4 = molecular target: T1, TRPV4 (Mus musculus, UniProt Q9EPK8); test: Calcium influx in Fluo-4 loaded normal and tumor endothelial cells in response to TRPV4 activator; assay type: cell-based; settings: Fluo-4 loaded cells
T1 construct: normal EC that were isolated from the dermis (MDEC cells) of TRAMP mice were used instead; endogenous in cells; host or cells: tumor endothelial cells (TEC) from TRAMP mouse prostate adenocarcinoma; normal EC (MDEC) from TRAMP mouse dermis
Excerpt: Cell Culture. Tumor endothelial cells (EC) cells were isolated from transgenic TRAMP mice bearing prostate adenocarcinoma. Because it is difficult to obtain sufficient quantities of EC cells from the normal mouse prostate (due to its small size), normal EC that were isolated from the dermis (MDEC cells) of TRAMP mice were used instead. Normal EC cells from human dermis (HDEC cells; Cambrex) and an established mouse pancreatic EC cell line (MS1-EC cells; gift of Judah Folkman) served as independent non-tumor EC cell controls. […]
(§1) EC cells adherent to the flexible substrates were loaded with Fluo-4/AM (1 μM) for 30 min, washed 3 times in calcium medium (136 mM NaCl, 4.7 mM KCl, 1.2 mM MgSO4, 1.1 mM CaCl2, 1.2 mM KH2PO4, 5 mM NaHCO3, 5.5 mM glucose, and 20 mM Hepes. pH 7.4) and then exposed to mechanical strain (15% elongation) for 3-4 sec using a Stage Flexer (FLEXCELL® International) apparatus that is fixed on a Nikon upright microscope equipped with CCD camera (Spot-RT slider, Diagnostics Corp, USA). Images were acquired for every 4 seconds and analyzed using IP lab software and Microsoft Excel as described in Matthews, et al. (2006) (J. Cell Sci., 119:508-518).
To confirm whether this difference in TRPV4 expression affects TRPV4 function in these cells, the inventors measured calcium influx in Fluo-4 loaded cells in response to specific TRPV4 activator 4-α-PDD.

human TRPV4 = molecular target: T2, human TRPV4 (Homo sapiens, UniProt Q9HBA0); test: Calcium influx in TEC transfected with human TRPV4-EGFP construct; assay type: cell-based
T2 construct: expressed in transfected cells; host or cells: mouse tumor endothelial cells (TEC) from TRAMP mice, Amaxa nucleofection
T2 sequence (Q9HBA0 whole entry): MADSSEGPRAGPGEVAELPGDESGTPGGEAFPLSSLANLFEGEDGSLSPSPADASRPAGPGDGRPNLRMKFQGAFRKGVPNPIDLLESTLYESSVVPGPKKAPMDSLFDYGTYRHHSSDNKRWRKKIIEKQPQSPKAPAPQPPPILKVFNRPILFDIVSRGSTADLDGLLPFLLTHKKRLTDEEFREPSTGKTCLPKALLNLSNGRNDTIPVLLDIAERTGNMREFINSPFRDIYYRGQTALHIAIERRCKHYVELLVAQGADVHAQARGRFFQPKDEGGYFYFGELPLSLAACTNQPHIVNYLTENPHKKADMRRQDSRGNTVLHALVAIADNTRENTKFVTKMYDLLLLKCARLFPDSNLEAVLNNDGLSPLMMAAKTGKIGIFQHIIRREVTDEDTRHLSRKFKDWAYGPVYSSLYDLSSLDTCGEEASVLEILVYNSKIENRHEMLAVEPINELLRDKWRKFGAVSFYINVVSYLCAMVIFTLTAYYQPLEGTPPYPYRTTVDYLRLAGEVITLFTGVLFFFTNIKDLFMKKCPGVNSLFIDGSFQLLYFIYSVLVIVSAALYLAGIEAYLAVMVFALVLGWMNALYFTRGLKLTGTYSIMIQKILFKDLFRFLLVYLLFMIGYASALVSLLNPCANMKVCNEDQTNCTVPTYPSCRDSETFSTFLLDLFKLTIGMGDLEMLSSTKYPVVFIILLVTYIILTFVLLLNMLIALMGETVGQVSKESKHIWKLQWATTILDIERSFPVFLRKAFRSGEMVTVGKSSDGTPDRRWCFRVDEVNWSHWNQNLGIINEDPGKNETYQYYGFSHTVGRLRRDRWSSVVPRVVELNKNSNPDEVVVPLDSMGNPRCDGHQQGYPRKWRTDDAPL
Protocol: as §1
Next, the inventors transfected TEC with a human TRPV4-EGFP construct and checked its ability to rescue aberrant mechanosensation of tumor EC. […] TRPV4 activator, 4-α-PDD induced almost 8 fold increase in calcium in these cells compared to EGFP alone-transfected TEC (FIG. 2A). The inventors then cultured these TRPV4-overexpressing cells on transglutamase linked gelatin gels of various stiffness (98 to 2,280 Pa) for 6 h and compared their cell spreading over time with that of EGFP-transfected TEC (control). As expected and shown in FIGS. 2B and 2C, TEC cells transfected with only EGFP attached, spread and increases their degree of spreading with the increasing gel stiffness. […]

T1 sequence (Q9EPK8 whole entry): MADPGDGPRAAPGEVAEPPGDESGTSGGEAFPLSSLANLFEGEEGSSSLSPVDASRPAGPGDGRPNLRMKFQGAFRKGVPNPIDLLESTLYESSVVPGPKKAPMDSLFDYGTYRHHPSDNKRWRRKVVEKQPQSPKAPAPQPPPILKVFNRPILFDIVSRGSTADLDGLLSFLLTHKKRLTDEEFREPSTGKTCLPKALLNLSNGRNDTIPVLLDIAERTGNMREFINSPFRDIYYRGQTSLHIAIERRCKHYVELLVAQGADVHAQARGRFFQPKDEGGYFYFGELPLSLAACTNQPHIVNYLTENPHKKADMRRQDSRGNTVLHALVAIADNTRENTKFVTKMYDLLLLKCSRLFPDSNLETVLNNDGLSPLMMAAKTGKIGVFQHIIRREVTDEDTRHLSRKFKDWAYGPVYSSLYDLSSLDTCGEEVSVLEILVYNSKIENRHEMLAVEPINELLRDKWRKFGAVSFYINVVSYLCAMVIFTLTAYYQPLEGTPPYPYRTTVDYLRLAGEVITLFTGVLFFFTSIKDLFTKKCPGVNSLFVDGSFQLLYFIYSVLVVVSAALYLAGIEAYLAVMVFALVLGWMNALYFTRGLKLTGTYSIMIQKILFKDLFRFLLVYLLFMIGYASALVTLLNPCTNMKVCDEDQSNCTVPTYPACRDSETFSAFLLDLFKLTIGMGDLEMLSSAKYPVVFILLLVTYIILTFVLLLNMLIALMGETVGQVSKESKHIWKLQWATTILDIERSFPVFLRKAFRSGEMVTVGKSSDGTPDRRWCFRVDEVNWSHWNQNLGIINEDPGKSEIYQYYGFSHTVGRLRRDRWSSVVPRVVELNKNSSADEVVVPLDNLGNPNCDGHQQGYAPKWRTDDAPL

## CCCCCCCCCC(=O)O[C@@H]1[C@@H](C)[C@@]2(O)[C@@H](C=C(CO)C[C@@]3(O)C(=O)C(C)=C[C@@H]23)[C@@H]2C(C)(C)[C@]12OC(=O)CCCCCCCCC [4-α-PDD, 4-α-phorbol 12,13-didecanoate]
TRPV4; normal EC (nEC)
  calcium influx induced in nEC: rapid robust calcium influx
TRPV4; tumor EC vs nEC
  reduction of induced calcium influx in tumor EC compared with nEC: ~40%
Human TRPV4
  increase in calcium compared to EGFP alone-transfected TEC: ~8 fold

Reference: US9078856B2, “Improving efficacy of cancer therapy” (CHILDREN'S MEDICAL CENTER CORPORATION, priority 2010, dated 2015)
